Experimental findings from article PMC7950324, “A general method for quantifying ligand binding to unmodified receptors using Gaussia luciferase” (The Journal of Biological Chemistry, 2021) are described below.

Read-outs that look alike come from different tables or passages of the source.

The target in assay [1] is T1, ɑ1AAR (Homo sapiens, UniProt P35348). The assay is described as follows: α1AAR ligand screening, plasma membrane–ligand BRET (α1AAR with GLuc–PM). The conditions noted are these: for inhibition at 10 µM: 20 min.
T1 sequence (P35348 whole entry): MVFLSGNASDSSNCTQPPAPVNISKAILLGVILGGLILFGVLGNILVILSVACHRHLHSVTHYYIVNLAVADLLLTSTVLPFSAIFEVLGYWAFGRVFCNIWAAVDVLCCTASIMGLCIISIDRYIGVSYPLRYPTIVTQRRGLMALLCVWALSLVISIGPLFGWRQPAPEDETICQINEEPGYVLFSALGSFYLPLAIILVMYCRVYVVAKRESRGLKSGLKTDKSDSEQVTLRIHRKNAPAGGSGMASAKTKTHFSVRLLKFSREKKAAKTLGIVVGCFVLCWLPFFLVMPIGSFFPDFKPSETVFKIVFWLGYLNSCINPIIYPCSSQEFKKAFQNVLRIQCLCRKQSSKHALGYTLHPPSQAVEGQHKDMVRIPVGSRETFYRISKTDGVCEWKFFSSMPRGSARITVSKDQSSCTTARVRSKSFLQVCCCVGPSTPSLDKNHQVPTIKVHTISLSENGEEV
The target in assay [2] is T2, GLuc–ɑ1AAR (Homo sapiens, UniProt P35348).
T2 construct: Gaussia luciferase signal peptide (N); […]; expressed in transfected cells; host or cells: HEK 293T
T2 sequence (P35348 whole entry): as above
The assay can be described thus: Receptor–ligand BRET equilibrium binding, GLuc–α1AAR in HEK 293T cells. On the technique in general: Bioluminescence resonance energy transfer reports proximity on the nanometre scale.

Assay [3] deals with T1, ɑ1AAR. The assay is described as follows: PM–ligand BRET equilibrium binding, α1AAR with GLuc–PM. More on the design: expressed in transfected cells; host or cells: HEK 293T.
Assay [4] addresses T3, AT1R (Rattus norvegicus, UniProt P25095).
T3 construct: expressed in transfected cells; host or cells: HEK 293T
T3 sequence (P25095 1-359): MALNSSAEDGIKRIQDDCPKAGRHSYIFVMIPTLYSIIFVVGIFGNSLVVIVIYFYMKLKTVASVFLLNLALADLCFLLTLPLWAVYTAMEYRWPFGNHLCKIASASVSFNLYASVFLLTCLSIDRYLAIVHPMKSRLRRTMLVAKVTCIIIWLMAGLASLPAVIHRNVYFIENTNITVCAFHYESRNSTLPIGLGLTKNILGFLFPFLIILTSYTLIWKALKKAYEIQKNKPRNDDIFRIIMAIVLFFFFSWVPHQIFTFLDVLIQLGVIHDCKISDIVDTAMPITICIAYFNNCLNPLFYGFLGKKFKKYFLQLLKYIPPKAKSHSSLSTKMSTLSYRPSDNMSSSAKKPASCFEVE
The assay is described as follows: PM–ligand BRET equilibrium binding, untagged AT1R with GLuc–PM. The conditions noted are these: two site competitive fit.

Assay [5] addresses T4, NanoLuc–AT1R (Rattus norvegicus, UniProt P25095).
T4 construct: secretion signal peptide of interleukin-6 (N); expressed in transfected cells; host or cells: HEK 293T
T4 sequence (P25095 1-359): T3 sequence (P25095 1-359)
The assay is described as follows: Receptor–ligand BRET equilibrium binding, NanoLuc–AT1R in HEK 293T cells. The conditions noted are these: 1 μM TAMRA–AngII, two site competitive fit, 2 h room temperature.

Assay [6] concerns the target T5, GLuc–AT1R (Rattus norvegicus, UniProt P25095).
T5 construct: Gaussia luciferase signal peptide (N); expressed in transfected cells; host or cells: HEK 293T
T5 sequence (P25095 1-359): T3 sequence (P25095 1-359)
The assay is described as follows: Kinetic receptor–ligand BRET, GLuc–AT1R. Format: binding.

The target of assay [7] is T5, GLuc–AT1R. The assay is described as follows: Receptor–ligand BRET equilibrium binding, GLuc–AT1R in HEK 293T cells. As to conditions: 1 μM TAMRA–AngII, two site competitive fit, 2 h room temperature.
The target in assay [8] is T3, AT1R. The assay can be described thus: PM–ligand BRET equilibrium binding, untagged AT1R with NanoLuc–PM. The conditions noted are these: 1 μM TAMRA–AngII, two site competitive fit.
Assay [9] concerns the target T3, AT1R. The assay can be described thus: Kinetic PM–ligand BRET, AT1R with GLuc–PM. Type of assay: binding.
Assay [10] has as its target AT1 angiotensin receptor (AT1R), untagged, rat (rat) (UniProt P25095). The assay can be described thus: FRET or BRET; PM‒ligand (bystander) BRET with GLuc‒PM, equilibrium competition: live HEK 293T cells with unmodified receptor, GLuc‒PM and DN-Dyn; a fixed fluorescent ligand (1 μM TAMRA‒AngII, 300 ng/ml biotinylated EGF on Alexa Fluor 488 streptavidin, or 100 μg/ml Alexa Fluor 488 human transferrin) and increasing unlabeled ligand, 2 h at room temperature.

For assay [11], the target named is AT2 angiotensin receptor (AT2R), untagged, rat (rat) (UniProt P35351). Described as above.
Chain of AT2 angiotensin receptor (AT2R), untagged, rat (rat) (P35351 whole entry): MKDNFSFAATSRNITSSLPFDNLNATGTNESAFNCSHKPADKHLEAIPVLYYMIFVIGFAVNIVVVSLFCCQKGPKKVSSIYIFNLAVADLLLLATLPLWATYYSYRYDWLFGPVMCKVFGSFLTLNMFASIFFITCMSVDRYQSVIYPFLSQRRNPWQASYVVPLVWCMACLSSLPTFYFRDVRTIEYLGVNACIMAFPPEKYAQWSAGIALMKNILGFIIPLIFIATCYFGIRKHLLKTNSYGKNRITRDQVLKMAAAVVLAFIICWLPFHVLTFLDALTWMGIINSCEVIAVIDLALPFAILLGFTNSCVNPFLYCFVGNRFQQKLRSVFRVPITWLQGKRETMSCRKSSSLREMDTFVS
[12] abbreviates: read-out: plasma membrane-ligand BRET decrease (%) Replicate1.
Setting [13] is: read-out: plasma membrane-ligand BRET decrease (%) Replicate2.
Setting [14] is: 375 nM BODIPY FL–prazosin, one site competitive fit, receptor–ligand BRET.
Where [15] appears, read: 375 nM BODIPY FL–prazosin, one site competitive fit, PM–ligand BRET.

For the molecule `Cc1cc(C)c(CNC(=O)c2ccc(NC(=O)C3CC3)cc2)c(=O)[nH]1` [BCC0003661], the inhibition at 10 µM in [1] (setting [12]) is -7.67%; in assay [1] (setting [13]), -9.71%.
For `Cc1cc(C(=O)NCc2ccc(F)cc2)on1` [BCC0004615] the same measures were -12.9% and -13.9%.
For `CC(NC(=O)C1CC1C)c1ccc(-n2cncn2)cc1` (stereo not shown) [BCC0008909] the same measures were 4.15% and -0.3%.
The term Ki denotes the dissociation constant of the complex between target and ligand, obtained from inhibition or displacement. A high value points to a looser hold on the target. For `O=C(/C=C/c1nc2ccccc2o1)N1CCC(c2c[nH]c3ccccc23)CC1` [BCC0010913, (E)-3-(1,3-Benzoxazol-2-yl)-1-[4-(1H-indol-3-yl)piperidin-1-yl]prop-2-en-1-one], the Ki in assay [2] (setting [14]) is 2750 nM; in [3] (setting [15]), 1840 nM.
`Cc1ccnc(SCc2nc3ccccn3c2Br)n1` [BCC0020406]: the inhibition at 10 µM in assay [1] (setting [12]) is -10.3%; in assay [1] (setting [13]), -12%.
For `O=C(CN1CCN(CC(=O)Nc2cccc([N+](=O)[O-])c2)CC1)Nc1cccc([N+](=O)[O-])c1` [BCC0036095] the same measures were -1.4% and 3.14%.
The matching figures for `COc1ccc(C(=O)NCCN2CCN(C(=O)c3ccc(OC)c(OC)c3)CC2)cc1OC` [BCC0048283]: 0.72% and 3.82%.
The matching figures for `CCCN1CCC(N2CCN(S(=O)(=O)c3ccc(C)cc3)CC2)CC1` [BCC0058402]: -0.92% and 2.58%.
Regarding `CCC(=O)c1ccc(OCCN2CCOCC2)cc1` [BCC0059938], the values for the inhibition at 10 µM in assay [1] (setting [12]) and in [1] (setting [13]) were -1.24% and -1.63%, respectively.
In the case of `O=C(CN1CCC(n2nnc3cc(F)ccc32)CC1)N1CCc2ccccc2C1` [BCC0061678, 1-(3,4-Dihydro-1H-isoquinolin-2-yl)-2-[4-(5-fluorobenzotriazol-1-yl)piperidin-1-yl]ethanone], the Ki was 274 nM in assay [2] (setting [14]) and 180 nM in [3] (setting [15]).
For the molecule `CN1CCN(C(=O)c2ccc(-n3nc(C(F)(F)F)c4c3CCCC4)cc2)CC1` [BCC0063211], the results for the inhibition at 10 µM in [1] (setting [12]) and in assay [1] (setting [13]) were 3.59% and 4.59%, respectively.
On to `C=CCOc1ccc2[nH]c(C)c(C(=O)OCC)c2c1` [BCC0065386], for which the inhibition at 10 µM worked out at 4.81% in assay [1] (setting [12]) and 1.12% in assay [1] (setting [13]).
For the molecule `O=C(c1noc2c1COc1ccccc1-2)N1CCN(c2cccc(Cl)c2)CC1` [BCC0066678], the inhibition at 10 µM was -4.28% in assay [1] (setting [12]) and -2.43% in assay [1] (setting [13]).
As for `CN1CCCCC1C#CC(O)(c1ccccc1)c1ccccc1` (stereo not shown) [BCC0068132], in assay [1], the “plasma membrane-ligand BRET decrease (%) Replicate1” value was -4,21% and the “plasma membrane-ligand BRET decrease (%) Replicate2” value was -5,19%.
For `COc1ccc(-c2nnc(SCC(=O)Nc3cc(C)cc(C)c3)[nH]2)cc1` [BCC0072526, N-(3,5-Dimethylphenyl)-2-[[5-(4-methoxyphenyl)-1H-1,2,4-triazol-3-yl]sulfanyl]acetamide], the Ki is 215 nM in assay [2] (setting [14]) and 86.1 nM in assay [3] (setting [15]).
On to `CN(C)CCCNCc1ccc2c(c1)OCO2` [BCC0076253], for which the results for the inhibition at 10 µM in [1] (setting [12]) and in assay [1] (setting [13]) were -1.24% and -0.43%, respectively.
For the molecule `O=C(NCCN1CCN(c2ccccc2)CC1)Nc1ccc2c(c1)OCCO2` [BCC0079473, 1-(2,3-Dihydro-1,4-benzodioxin-6-yl)-3-[2-(4-phenylpiperazin-1-yl)ethyl]urea], the Ki in [2] (setting [14]) was found to be 248 nM; in assay [3] (setting [15]), 122 nM.
As to `CSc1ccc(CNC2CN3CCC2CC3)cc1` (stereo not shown) [BCC0080607], the inhibition at 10 µM was -0.99% in assay [1] (setting [12]) and 2.8% in assay [1] (setting [13]).
With `COc1ccccc1NS(=O)(=O)c1ccc2c(c1)SC(C)C(=O)N2` (stereo not shown) [BCC0083047], the inhibition at 10 µM is -3.44% in assay [1] (setting [12]) and -2.12% in assay [1] (setting [13]).
The matching figures for `FC(F)(F)c1cccc(OCCn2cncn2)c1` [BCC0089082]: 2.21% and 4.76%.
The matching figures for `O=C(CN1CCC(N2CCCCC2)CC1)N1CCC2(CC1)OCCO2` [BCC0092904]: -4.89% and -1.52%.
The matching figures for `O=C(Cn1nnc2ccccc21)N1CCC(n2c(=O)oc3ccccc32)CC1` [BCC0101075]: -4.37% and -10.8%.
With `Cc1cc(S(=O)(=O)NCc2ccccc2)ccc1OCC(=O)N1CCN(C)CC1` [BCC0113627], the figures for the inhibition at 10 µM in assay [1] (setting [12]) and in assay [1] (setting [13]) were 1.05% and -3.63%, respectively.
In the case of `CC(C)(C)Nc1nnc(Sc2ncnc3sccc23)s1` [BCC0117056], the values for the inhibition at 10 µM in [1] (setting [12]) and in [1] (setting [13]) were -11.6% and -0.3%, respectively.
For `CS(=O)(=O)Nc1c(O)ccc2c1CCCC2C1=NCCN1` (stereo not shown) [Compound A61603, A61603, reference compound] the same measures were -74% and -76%.
`CC[C@H](C)[C@H](NC(=O)[C@@H]1CCCN1C(=O)[C@H](Cc1c[nH]cn1)NC(=O)[C@@H](NC(=O)[C@@H](NC(=O)[C@@H](NC(=O)[C@H](CCCNC(=N)N)NC(=O)CNC)C(C)C)[C@@H](C)CC)[C@@H](C)CC)C(=O)O` [SII, [Sar^1,Ile^4,Ile^8]-angiotensin II]: in assay [4] (read-out: IC50_Hi, agonist binding, GLuc–PM (Fig. 2M)), the IC50 was determined as 1280 nM.
What is called koff is the first-order rate constant of dissociation. Usually kon stands for the rate constant with which the complex forms. For the molecule `CCOc1nc2cccc(C(=O)O)c2n1Cc1ccc(-c2ccccc2-c2nnn[nH]2)cc1` [candesartan], the IC50 in assay [5] (read-out: IC50_Hi) worked out at 0.52 nM; in assay [5] (read-out: IC50_Lo), 1 nM; in [4] (1 μM TAMRA–AngII, GLuc–PM, read-out: IC50_Hi), 1.24 nM; in [4] (1 μM TAMRA–AngII, GLuc–PM, read-out: IC50_Lo) it was 248000 nM; in assay [7] (read-out: IC50_Hi), 0.207 nM; in [7] (read-out: IC50_Lo), 1.3 nM. In addition, the IC50 in assay [8] (read-out: IC50_Hi) was 1.29 nM; in assay [8] (read-out: IC50_Lo) it was 19.6 nM. The koff in assay [6] came to 0.00123 s⁻¹; in [9] it was 0.000833 s⁻¹. Moreover, the kon came to 540000 M⁻¹ s⁻¹ in [6] and 278000 M⁻¹ s⁻¹ in [9].
As for `COc1ccccc1OCCNCC(O)COc1cccc2[nH]c3ccccc3c12` (stereo not shown) [carvedilol, reference compound], the Ki in [2] is 62.7 nM; in [3], 43.8 nM.
In [10], “[Sar^1,Ile^4,Ile^8]-angiotensin II (SII) (peptide)” displayed an IC50 of the high-affinity site (IC50 Hi) of 1280 nM.
Regarding angiotensin II (AngII) (peptide), the IC50 in assay [11] amounted to 479 nM.
